# According to patent publication US8563254B2, “Biomarkers of tumor pharmacodynamic response” (Novartis AG, priority 2009, dated 2013):
# Experiments:
# Type in all cases: cell-based, human
# [1] = system: A375 cells; assay: IL-8 ELISA of A375 culture supernatants
# Description: A malignant melanoma cell line A375 (American Type Culture Collection, Manassas, Va., USA) and gastric cancer cell line, GTL-16 (Prof Silvia Giordano, Institute for Cancer Research and Treatment, Turin, Italy) were cultured in RPMI 1640 supplemented with 10% FBS and 1% penicillin-streptomycin at 37° C. in 5% CO2 (GIBCO reagents, Invitrogen Corporation, Carlsbad, Calif., USA). Cell numbers were determined by ViCell™ XR Cell Viability Analyzer 2.03 (Beckman Coulter, Inc., Fullerton, Calif., USA). Cells were seeded in poly-D-lysine coated plates (BIOCOAT Cell Environments, Becton Dickinson Biosciences, San Jose, Calif., USA).
# Human IL-8 levels in cell culture supernatants from GTL-16 and A375 cells were measured by a sandwich enzyme-linked immunosorbent assay (R&D Systems, Inc., Minneapolis, Minn., USA). Cell culture supernatants were collected from DMSO and NVP-AUY922 treated cells 16, 24, 48 and 72 hr post-treatment and stored at −20° C.
# To better characterize the relationship between Hsp90 inhibitor treatment and effects on IL-8 production, GTL-16 and A375 cells were washed and treated for 24 hr with fresh medium containing various concentrations of NVP-AUY922. For this length of treatment time, maximal inhibition of IL-8 accumulation appears to be reached at 0.3 μM as measured by enzyme-linked immunosorbent assay; this equates to 80% and 60% reductions in GTL-16 and A375 cultures, respectively (FIGS. 2A, B).
# [2] = system: A375 cells; assay: Cell viability by CellTiter-Glo, A375; conditions: A375, 0.3 μM, 72 hr treatment time
# Description: Cell Viability was measured by CellTiter-Glo assay (Promega U.S., Madison, Wis., USA). GTL-16 and A375 cells were grown in 6-well poly-D-lysine coated plates (BD Biosciences). Cells were treated with NVP-AUY922. Cell viability was measured 16, 24, 48 and 72 hr post-treatment with Hsp90 inhibitor. Briefly supernatants were removed and cells were washed with 3 ml of PBS, pH 7.4. 1 ml of a two component CellTiter-Glo reagent was added to each well and the plates were shaken vigorously for 2 min, followed by 10 min incubation at room temperature in the dark. Luminescent signal intensity was recorded with an integration time set between 0.25 and 1 s/well.
# [3] = system: GTL-16 cells; assay: Western blot of nuclear protein fractions, GTL-16; conditions: GTL-16, 0.3 μM, 16 hr and 24 hr, normalized to total protein
# Description: Total protein lysates were prepared from the GTL-16 and A375 cells with RIPA lysis buffer (Upstate, Millipore Corporation, Charlottesville, Va., USA). Cells were washed with PBS and 500 ul of ice-cold RIPA buffer, containing protease inhibitor cocktail tablet (Roche Diagnostic GmbH, Mannheim, Germany) and phosphatase inhibitors (Sigma-Aldrich, Inc., St. Louis, Mo., USA), was added to each plate on ice. After 15 min the cells were scrapped from the plate surface and spun at 16000 RPM for 10 min at 4° C. The supernatant was collected and frozen at −80° C. Nuclear protein fractions were prepared by the NE-PER nuclear and cytoplasmic extraction kit (Pierce Biotechnology, Rockford, Ill., USA). Proteins were quantified by bicinchoninic acid assay (Pierce Biotechnology, Rockford, Ill., USA) for Western blotting.
# Primary antibodies specific for NFκB p65, cREL, p-ERK1/2, p-c-jun, ERK1 and Jun were purchased from Santa Cruz Biotechnology (Santa Cruz Biotechnology, Inc., Santa Cruz, Calif., USA) with the exception of Hsp70 and TBP (nuclear loading control), which were obtained from StressGen (StressGen, Assay Designs, Inc., Aim Arbor, Mich., USA) and Abcam (Abcam Inc., Cambridge, Mass., USA), respectively. […]
smiles,measurement,setting,value
"CCNC(=O)c1noc(-c2cc(C(C)C)c(O)cc2O)c1-c1ccc(CN2CCOCC2)cc1 [NVP-AUY922, 5-(2,4-Dihydroxy-5-isopropyl-phenyl)-4-(4-morhpolin-4-ylmethyl-phenyl)-isoxazole-3-carboxylic acid ethylamide]",time within which IL-8 production dramatically declines,"[1]; A375, 0.3 μM",≤ 16 h
same,concentration at which maximal inhibition of IL-8 accumulation is reached,"[1]; A375, 24 hr treatment",0.3 µM
same,inhibition at 0.3 µM,"[1]; Homo sapiens, A-375, A375, 0.3 μM, 24 hr, ELISA, read-out: reduction of IL-8 accumulation (maximal inhibition)",60%
same,cell viability over time,[2],steadily declines
same,change in nuclear NFκB p65 levels,[3],−26%
same,decrease in nuclear phospho-c-Jun levels,[3],~83%
